“Also recorded” adds a separate entry of the source. Read-outs that look alike come from different tables or passages of the source.
How the values were obtained:
[1] = test system: A-fibers of rabbit vagus nerve; assay: Extracellular recording of compound action potentials (APc), desheathed vagus nerve, A-fibers; parameters: species or system New Zealand white rabbit; conditions: for inhibition at 0.5 µM / activity at 0.5 µM: Oryctolagus cuniculus, 0.5 μM VTD; for inhibition at 0.5 µM: 1.25 h, mean ± SEM; for activity at 0.5 µM: read-out: Amplitude of single APc elevation relative to amplitude at beginning of VTD exposure
Protocol: Adult male New Zealand white rabbits (3±0.5 kg) were pretreated intramuscularly with a mixture of ketamine (200 mg), xylazine (20 mg) and atropine (0.4 mg) for sedation. Ten minutes after this treatment, the animals were anesthetized with diethyl ether. After cessation of respiration, a longitudinal skin incision was made, and the cervical portion of both vagus nerves was dissected. The vagus nerves were temporarily stored at room temperature (22° C.) in a beaker containing modified HEPES Liley (HL) solution stirred constantly by aeration with a mixture of 95% oxygen and 5% carbon dioxide.
The modified HL solution used for bathing the nerve and subsequent drug perfusion consisted of (in mM): NaCl, 118.0; KCl, 5.0; CaCl2 2H2 0, 2.0; MgCl2 6H2 0, 1.0; α-D(+)-glucose, 11.0; NaHC03, 25.0; and N-2-hydroxy-ethylpiperazine-N-2-ethanesulfonic acid (HEPES) buffer, 5.0 mM. The pH was adjusted to 7.4±0.05 by addition of 1 N NaOH. The perfusion solution was bubbled with a gas mixture of 95% oxygen and 5% carbon dioxide at a vigorous rate just before flowing onto the nerve. The pH was stabilized by the HEPES buffer and maintained at 7.4.
VTD free base (no. V-5754, lot 58F-7828, Sigma, St. Louis, Mo.) was stored in a desiccator below 0° C. and was used to prepare a 2 mM stock solution in dimethyl sulfoxide [DMSO], Fisher Scientific, lot 861316), which also was stored at below 0° C. VTD, a steroidal alkaloid (FIG. 2A) that is produced by certain lilies, has a solubility limited to approximately 10^-3 M in aqueous slat solutions [Kupchan and By, "The Veratrum Group," in Alkaloids, Vol. 10, Manske, R.H.F. (ed.), New York, Academic Press (1968), pp. 193-285]. The stock VTD solution was diluted to final concentrations of 0.2-10 μM by the addition of HL. The maximum equivalent content of DMSO is 0.5%, and in three control experiments we detected no change in electrophysiologic behavior with 1% DMSO.
The nerves were cleaned and desheathed by microdissection before mounting in an airtight chamber (FIG. 2B) [Gissen et al., Anesthesiology 53:467-474 (1980)]. Petroleum jelly (White Petrolatum, Denison Laboratories) seals separated a central, 11-mm length of the nerve from the lateral pools, used for stimulating and recording with electrodes made of platinum wire. The central section of the chamber (volume 0.25 ml) was perfused with HL solution at 0.5 ml.min.^-1. The lateral pools containing the moistened ends of the nerves adsorbed to the electrodes were filled with paraffin oil. The APc s were propagated over 21 mm, from the stimulating to the recording electrodes, with the proximal recording electrodc located 4.5 mm from the edge of the central, drug exposure chamber. Thus, measured APc s were conducted in nerve exposed to drug for half of the conduction pathway, and had been conducting through drug-free medium over a distance containing at least two or three nodes of Ranvier (in the fastest-conducting fibers), before reaching the recording electrodes.
The signal from the nerve was amplified 50 times (model AK 475 operational amplifier, Metametrics, Carlisle, Mass.) and passed to the oscilloscope preamplifiers (model 5A 22N, Tektronix). The preparation was not considered acceptable unless the APc signals from the nerve exceeded 1.5 mV for A-fibers, 0.5 mV for B-fibers, and 0.3 mV for C-fibers.
Each nerve was exposed to only one VTD concentration, and each concentration was tested in four or five separate nerves, except in tie sheathed nerves, for which only two nerves were used. The temperature was 20°-22° C.
The standard protocol used for testing the action of VTD was to record the APc elevations in control HL solution for 30-60 min. before adding VTD; for 60-75 min. during VTD application; and for 60-75 min. after replacement with VTD-free HL. […]

[2] = test system: B-fibers of rabbit vagus nerve; assay: Sucrose-gap recording in the veratrinized region, B-fibers; parameters: species or system New Zealand white rabbit; conditions: 0.5 μm VTD
Protocol: Adult male New Zealand white rabbits (3±0.5 kg) were pretreated intramuscularly with a mixture of ketamine (200 mg), xylazine (20 mg) and atropine (0.4 mg) for sedation. Ten minutes after this treatment, the animals were anesthetized with diethyl ether. After cessation of respiration, a longitudinal skin incision was made, and the cervical portion of both vagus nerves was dissected. The vagus nerves were temporarily stored at room temperature (22° C.) in a beaker containing modified HEPES Liley (HL) solution stirred constantly by aeration with a mixture of 95% oxygen and 5% carbon dioxide. […]
VTD free base (no. V-5754, lot 58F-7828, Sigma, St. Louis, Mo.) was stored in a desiccator below 0° C. and was used to prepare a 2 mM stock solution in dimethyl sulfoxide [DMSO], Fisher Scientific, lot 861316), which also was stored at below 0° C. […] The maximum equivalent content of DMSO is 0.5%, and in three control experiments we detected no change in electrophysiologic behavior with 1% DMSO.
Nerves were desheathed and mounted in an acrylic sucrose-gap chamber (FIG. 2C). […] In contrast to the extracellular chamber described above, which measured APc in a drug-free segment after they had propagated through a VTD solution, the sucrose gap measured the behavior of the nerve membrane directly exposed to drug, the "veratrinized" nerve. […]

rat sciatic nerve = assay: Sensory block of rat sciatic nerve in vivo (nocifensive withdrawal reflex to pinch of the foot pad); parameters: species or system Male Sprague-Dawley rats; conditions: for fraction block, SENSORY / duration, SENSORY / onset, SENSORY: 0.1 ml; for duration, SENSORY / onset, SENSORY: mean ± SEM
Protocol: Male Sprague-Dawley rats (200-250 g) were divided into 4 groups of 10 each. 0.1 ml of VTD alone at 0.2, 0.5 or 0.7 mM or vehicle (saline) was injected at the depression between the femoral head and the hip. The same animals were injected with VTD with epinephrine (EPI, 1:200,000) one week later, using the previously uninjected leg. Motor and sensory functions were rated by the respective monitoring of toe curling and/or foot dragging, and by testing the nocifensive withdrawal reflex to pinch of the foot pad of the injected hindlimb. Saline alone affected neither function.

## COc1ccc(C(=O)OC2CCC3(C)C4CCC5C6(O)CC(O)C7(O)C(CN8CC(C)CCC8C7(C)O)C6(O)CC53OC24O)cc1OC (stereo not drawn) [VTD, veratridine]
[1]; 2 μM VTD, 100-Hz stimulation
  Response of A-fibers during repetitive stimulation compared with drug-free solutions: almost identical to that in drug-free solutions before and after VTD exposure
[1]; A-fibers, 0.5 μM, 60 min. in VTD, P>0.05
  Single-stimulus APc after VTD compared with no-VTD controls: no significant difference
[1]; A-fibers, 2 μM VTD, 100 Hz, normal refractory behavior
  Decline of APc elevation at the second stimulation: about 15%
[1]; A-fibers, VTD-free HL wash
  Reversal of use-dependent depression by washing: did not reverse
[1]; A-fibers, 100 Hz, after 75 min. in VTD, P < 0.001 vs control, read-out: Percent inhibition of the tenth APc in a train compared to the first, VTD
  inhibition at 0.5 µM: 25.3 ± 3.5%
[1]; A-fibers, 100 Hz, after 75 min. of wash, read-out: Percent inhibition of the tenth APc in a train compared to the first, HL (Wash)
  inhibition at 0.5 µM: 27 ± 2.8%
[1]; A-fibers, during VTD exposure
  activity at 0.5 µM: 117 ± 7%
[1]; A-fibers, wash period
  activity at 0.5 µM: 123 ± 14%
[1]; up to 2 μM
  Use-dependent reduction of APc by VTD, A-fibers: modified little; also recorded: inconsequential for A-fibers
[2]
  B-fiber elevation after addition of VTD: unchanged
Rat sciatic nerve; VTD alone, vs motor block
  Frequency of sensory block (summary): less frequently
Rat sciatic nerve; [VTD] 0.2 mM
  fraction block, SENSORY: 1/10
  duration, SENSORY: 51 min
  onset, SENSORY: 13 min
Rat sciatic nerve; [VTD] 0.5 mM
  fraction block, SENSORY: 2/10
  duration, SENSORY: 224 ± 44 min
  onset, SENSORY: 3 ± 1 min
Rat sciatic nerve; [VTD] 0.7 mM
  fraction block, SENSORY: 4/10
  duration, SENSORY: 115 ± 1 min
  onset, SENSORY: 10 ± 2 min
Rat sciatic nerve; rat sciatic nerve
  Block of nocifensive reflexes compared with bupivacaine and lidocaine: blocked less predictably

— patent US5288723A, “A composition and a method of using veratridine and epinephrine as a local anesthetic” (priority 1991, dated 1994)
